In patent US20090181972A1, “Novel Inhibitors of Cysteine Proteases, the Pharmaceutical Compositions Thereof and their Therapeutic Applications” (priority 2005, published 2009):
pIC50: −log10 of the molar value.

Experiments:
[1] = system: PC-3 prostate cancer cells; assay: PC3 cell viability and proliferation assay (MTS); type: cell-based; conditions: Homo sapiens, PC-3, 72 hours incubation, mean of three independent experiments, read-out: PC3 GI50 D3
Description: PC-3 prostate cancer cells were obtained from ATCC, and maintained in F-12K medium containing 7% FBS and 1% penicillin/streptomycin. Cells were incubated at 37° C. in a humidified atmosphere containing 5% CO2.
(§1) Cell viability was assayed using the MTS technique in 96-well culture plates (CellTiter 96® Aqueous Non-Radioactive Cell Proliferation Assay, Promega) according to the manufacturer's instructions. MTS (3-(4,5-dimethyl-thiazol-2-yl)-5-(3-carboxymethoxyphenyl)-2-(4-sulfophenyl)-2H-tetrazolium) is a MTT-derived tetrazolium that is reduced in metabolically active cells into a soluble, cell-permeant formazan. The amount of formazan, detected by its absorbance at 492 nm is proportional to the number of living, metabolically active cells.
(§2) 2×10^3 PC3 cells were seeded per well. 24 hours later, the medium was changed and the cells treated in triplicate with the following concentrations of each compound: 10 μM-3.33 μM-1.11 μM-370 nM-123 nM-41 nM-14 nM and 5 nM. The compounds were diluted in 100% DMSO, whose final concentration on cells was kept at 0.5%.
(§3) Cells were incubated with the compounds for 72 hours, and their viability then assayed by the addition of MTS for 2 hours. Absorbance at 492 nm was measured directly from the 96-well culture plates. GI50 (Growth Inhibition 50) concentrations for each compound were calculated using a sigmoidal variable slope fit (Prism 4.0, Graphpad Softwares). Values represent mean of three independent experiments.

[2] = biological target: T1, USP5 (Homo sapiens, UniProt P45974); assay: USP5 activity assay; type: biochemical; conditions: 400 nM Ub-AMC, 300 pM enzyme; pre-incubated 30 minutes at 25° C., 60 minutes at 37° C.; sigmoidal fit; read-out: USP 5
T1 sequence (P45974 1-858): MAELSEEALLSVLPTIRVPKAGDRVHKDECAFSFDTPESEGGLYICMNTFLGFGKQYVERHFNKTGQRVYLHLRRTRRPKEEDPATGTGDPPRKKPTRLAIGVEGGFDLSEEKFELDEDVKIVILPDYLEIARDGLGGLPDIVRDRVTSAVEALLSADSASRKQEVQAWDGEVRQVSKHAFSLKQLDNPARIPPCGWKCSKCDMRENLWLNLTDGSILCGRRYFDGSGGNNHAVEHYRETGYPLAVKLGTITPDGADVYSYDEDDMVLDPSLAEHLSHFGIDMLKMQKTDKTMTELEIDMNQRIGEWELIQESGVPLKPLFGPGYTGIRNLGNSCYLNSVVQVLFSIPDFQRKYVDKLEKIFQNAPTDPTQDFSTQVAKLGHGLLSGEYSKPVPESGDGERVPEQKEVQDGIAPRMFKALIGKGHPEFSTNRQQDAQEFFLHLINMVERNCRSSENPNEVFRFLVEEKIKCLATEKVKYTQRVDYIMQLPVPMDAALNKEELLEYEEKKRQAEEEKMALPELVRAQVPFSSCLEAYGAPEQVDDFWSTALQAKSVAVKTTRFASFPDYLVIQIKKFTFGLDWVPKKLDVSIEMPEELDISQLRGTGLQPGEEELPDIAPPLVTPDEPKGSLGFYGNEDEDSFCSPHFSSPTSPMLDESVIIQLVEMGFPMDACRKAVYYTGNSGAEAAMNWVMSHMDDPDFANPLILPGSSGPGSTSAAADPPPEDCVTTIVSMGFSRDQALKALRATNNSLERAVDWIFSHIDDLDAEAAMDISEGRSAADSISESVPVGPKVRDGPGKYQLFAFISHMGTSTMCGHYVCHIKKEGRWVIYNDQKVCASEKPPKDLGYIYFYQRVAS
Description: USP5 was diluted in USP buffer (50 mM Tris HCl; 0.5 mM EDTA; 5 mM DTT; 0.01% Triton X-100; Bovine Serum Albumin 0.05 mg.ml^−1 pH 7.6). Compounds stocks (100 mM) were stored at -20° C. in DMSO.
(§4) Reactions were performed as duplicates in Black LJL 96 well plates (HE microplates; Molecular Devices; 20 μl final reaction volume). The substrate concentration for USP5 was 400 nM Ub-AMC (Boston Biochem). The concentrations of the enzyme (USP5) in specificity assays was 300 pM. The concentrations were determined in order to perform specificity assays under initial velocities at fixed substrate concentration. Compounds were pre-incubated with enzymes for 30 minutes at 25° C. Reactions were initiated by addition of substrate to the plates containing the enzymes (+/− compounds) diluted in assay buffer. Reactions were incubated for 60 minutes at 37° C. Reactions were stopped by adding acetic acid (100 mM final). Readings were performed on a Pherastar Fluorescent Reader (BMG). λ Emission 380 nm; λ Excitation=460 nm. Data (mean values +/− standard deviation) were analyzed as % of control (no compound) and plotted as percentage versus the Log of the compound concentration using GraphPad (Prism). Data were fitted to a sigmoidal model (variable slope).

[3] = system: HCT116 colon cancer cells; assay: HCT116 cell viability and proliferation assay (MTS); type: cell-based; conditions: Homo sapiens, HCT-116, 72 hours incubation, mean of three independent experiments, read-out: HCT116 GI50 D3
Description: HCT116 colon cancer cells were obtained from ATCC (American Type Culture Collection), and maintained in Mc Coy's 5A medium containing 10% FBS, 3 mM glutamine and 1% penicillin/streptomycin. Cells were incubated at 37° C. in a humidified atmosphere containing 5% CO2.
as §1, with “(3-(4,5-dimethyl-thiazol-2-yl)-5-(3-carboxymethoxyphenyl)-2-(4-sulfophenyl)-2H-tetra-zolium)” for “(3-(4,5-dimethyl-thiazol-2-yl)-5-(3-carboxymethoxyphenyl)-2-(4-sulfophenyl)-2H-tetrazolium)”
as §2, with “10^3 HCT116” for “2×10^3 PC3”
as §3, with “G150” for “GI50”

[4] = biological target: T2, USP7 (Homo sapiens, UniProt Q93009); assay: USP7 activity assay; type: biochemical; conditions: 400 nM Ub-AMC, 152 pM enzyme; pre-incubated 30 minutes at 25° C., 60 minutes at 37° C.; sigmoidal fit; read-out: USP 7
T2 construct: His tag (pFastBac-HT vector) (N); made in house; host or cells: Sf9 or High Five insect cells (baculovirus)
T2 sequence (Q93009 whole entry): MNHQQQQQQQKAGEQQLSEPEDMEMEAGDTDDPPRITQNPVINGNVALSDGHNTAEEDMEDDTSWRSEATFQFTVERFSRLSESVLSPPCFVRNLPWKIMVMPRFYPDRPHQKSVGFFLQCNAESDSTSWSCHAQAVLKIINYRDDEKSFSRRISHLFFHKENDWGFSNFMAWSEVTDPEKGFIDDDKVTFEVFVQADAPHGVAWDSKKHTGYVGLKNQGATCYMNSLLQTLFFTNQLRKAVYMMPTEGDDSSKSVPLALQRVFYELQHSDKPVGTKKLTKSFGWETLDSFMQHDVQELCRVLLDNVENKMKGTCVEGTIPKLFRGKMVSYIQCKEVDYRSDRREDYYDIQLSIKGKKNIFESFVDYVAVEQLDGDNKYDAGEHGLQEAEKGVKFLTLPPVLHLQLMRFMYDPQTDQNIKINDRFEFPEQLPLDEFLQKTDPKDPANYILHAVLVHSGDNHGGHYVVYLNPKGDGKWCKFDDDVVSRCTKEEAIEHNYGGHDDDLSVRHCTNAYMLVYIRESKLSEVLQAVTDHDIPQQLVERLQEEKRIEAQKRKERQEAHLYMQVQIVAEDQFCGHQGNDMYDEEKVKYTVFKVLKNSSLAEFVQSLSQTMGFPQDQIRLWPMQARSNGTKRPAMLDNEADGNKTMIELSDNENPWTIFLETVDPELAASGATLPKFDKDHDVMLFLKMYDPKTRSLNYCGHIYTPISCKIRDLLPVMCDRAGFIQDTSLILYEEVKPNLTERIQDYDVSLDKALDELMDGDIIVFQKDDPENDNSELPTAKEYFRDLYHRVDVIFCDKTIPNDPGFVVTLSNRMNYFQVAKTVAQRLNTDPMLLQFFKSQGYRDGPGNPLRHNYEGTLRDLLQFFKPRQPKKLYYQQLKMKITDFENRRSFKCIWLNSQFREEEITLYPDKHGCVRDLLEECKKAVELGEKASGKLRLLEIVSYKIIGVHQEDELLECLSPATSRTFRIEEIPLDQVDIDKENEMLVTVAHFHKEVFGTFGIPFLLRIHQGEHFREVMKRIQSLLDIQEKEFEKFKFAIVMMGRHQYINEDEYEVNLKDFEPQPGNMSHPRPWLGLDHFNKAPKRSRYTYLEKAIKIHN
Source text: The cDNA encoding USP7 was obtained by PCR amplification from placenta mRNA. USP7 cDNA was subcloned by PCR into a baculovirus expression vector (pFastBac-HT; Invitrogen). A cDNA encoding a mutated USP7 was generated by mutagenic PCR. The corresponding protein encodes a cysteine to alanine substitution at residue 223. The sequences were ascertained by sequencing of the entire open reading frame. Bacmids encoding USP7 were generated following DH10bac transposition. The corresponding bacmids were transfected into insect cells (Sf9). Viruses were recovered from culture supernatant and amplified twice. Insect cells (Sf9 or High Five; lnvitrogen) were infected for 72 hours. Total cell lysates were harvested and lyzed in lysis buffer (Tris HCl 50 mM pH 7.6; 0.75 % NP40; 500 mM NaCl; 10% glycerol; 1 mM DTT; 10 mM imidazole; Protease Inhibitor Cocktail; AEBSF 20 μg.ml^−1; Aprotinin 10 μg.ml^−1). Proteins were affinity purified on metal affinity resins (Talon Metal affinity resin; BD Biosciences). Bound materials were extensively washed in wash buffer (50 mM Sodium Phosphate pH 7.0; 300 mM NaCl; 10 mM imidazole; 0.5% Triton X-100; 10% glycerol) and eluted from the resin in 250 mM imidazole-containing wash buffer. Proteins were dialyzed in dialysis buffer (Tris HCl pH 7.6 20 mM; NaCl 200 mM; DTT 1 mM; EDTA 1 mM; 10% Glycerol). Proteins purifications were analyzed on 4-12% NuPAGE (Invitrogen).
USP7 was diluted in USP buffer (50 mM Tris HCl; 0.5 mM EDTA; 5 mM DTT; 0.01 % Triton X-100; Bovine Serum Albumin 0.05 mg.ml^−1 pH 7.6). Compounds stocks (100 mM) were stored at −20° C. in DMSO. Compounds were tested at the following final concentrations: 100 μM; 33.3 μM; 11.1 μM; 3.7 μM; 1.23 μM; 412 nM; 137 nM; 45.7 nM; 15.2 nM; 5 nM.
as §4, with “USP7” for “USP5”, “Ub-AMC (Chem. Biol., 2003, 10, p. 837-846)” for “Ub-AMC”, “(USP7)” for “(USP5)”, “152” for “300”

GI50 [1]	pIC50 [2]	GI50 [3]	pIC50 [4]	SMILES
107 nM	6.50	160 nM	–	O=C1c2ccccc2-c2nn3c(C4CC4)nnc3nc21 [Example 1j/B, 3-Cyclopropyl-1,2,3a,4,10-pentaaza-cyclopenta[b]fluoren-9-one]
235 nM	6.69	149 nM	–	O=C1c2ccccc2-c2nn3c(Cc4ccccc4)nnc3nc21 [Example 1k/B, 3-Benzyl-1,2,3a,4,10-pentaaza-cyclopenta[b]fluoren-9-one]
–	< 4.00	–	< 4.00	O=C1c2ccccc2-c2nc3nn(Cc4ccccc4)nc3nc21 [Example 4b, 2-Benzyl-2H-1,2,3,4,10-pentaaza-cyclopenta[b]fluoren-9-one]
–	5.51	–	–	O=C1c2ccccc2-c2nc3nnc(C4CC4)n3nc21 [Example 1j/A, 1-Cyclopropyl-2,3,4,10,10a-pentaaza-cyclopenta[b]fluoren-9-one]
